Patent US9200301B2, “Marine streptomyces, pyranosesquiterpene compound, as well as preparation method and applications thereof” (SOUTH CHINA SEA INSTITUTE OF OCEANOLOGY, CHINESE ACADEMY OF …, priority 2011, dated 2015)
≈ marks a conversion by molar mass, not a printed value. Entries after “also recorded” stand apart in the source; their conditions may differ. Like-named read-outs stand apart in the source and are kept apart here.

Tests used:
Escherichia coli = assay: Anti-Escherichia coli activity test (paper sheet / dilution multiple method); format: cell-based
Protocol: The samples are preliminarily tested and compared with the positive control, namely the rifampicin under the situation that each sample is 100 μg/tablet and the rifampicin taken as a standard product is 1 μg/tablet.

Artemia larvae = assay: Artemia larva lethal test; format: in vivo; settings: for LC50: Artemia larvae, 24 h at room temperature, from corrected mortality; for LC50 value: against Artemia larvae; for lethal Artemia activity (in words): in vivo
Protocol: (§1) Hatching of Artemia larvae: placing 100 mg of Artemia eggs in a 500 mL beaker, adding 400 mL of artificial sea water, inflating air slowly by using a small inflator pump, hatching at room temperature for 24 h, removing egg shells and the unhatched eggs, and continuously culturing the Artemia larvae for 24 h for later use.
(§2) The biological lethal method of the Artemia larvae is as follows: taking a 96-well cell culture plate according to a Solis improvement method, and adding 2004, of artificial sea water solution containing 10-15 Artemia in each well to prepare a test culture plate. […] A blank control group and sample groups of each concentration are respectively provided with three parallel holes, 54, of the sample solvent (DMSO) is added for the blank control group, 54, of the sample solutions of different concentrations are respectively added into the sample groups, and the final concentrations are 500 μg/mL, 50 μg/mL and 5 μg/mL respectively. The culture is performed at room temperature for 24 h, and then the number of dead individuals of the Artemia larvae is detected and counted under a binocular dissecting microscope. The biological lethal activity of the Artemia larvae is represented by corrected mortality and is calculated according to the following formula: Corrected mortality=(survival rate of control group−survival rate of treated group)/survival rate of control group×100%
(§3) The three concentrations and the corresponding corrected mortalities are input into a computer for respectively calculating LC50 and 95% confidence interval thereof.

Vibrio anguillarum [1] = settings: cited from earlier work; for MIC: against Vibrio anguillarum, values of compounds 2, 3 and 4 referred to Fdhila F et al., Journal of Natural Products, 2003, 66 (10): 1299-1301; for activity against Vibrio anguillarum (in words): compounds 2-4, based on Fdhila F et al.
Vibrio anguillarum [2] = assay: Anti-Vibrio anguillarum activity test (paper sheet / dilution multiple method); format: cell-based
Protocol: The samples are preliminarily tested under the situation that each sample is 100 μg/tablet, and the samples are found to have better activities. Then a dilution multiple method is adopted for testing the MIC values (the diameters of the paper sheets are 6 mm, 6-10 mm means weak activity, 10-15 mm means medium activity and 15 mm or more means strong activity).

[3] = Artemia larva lethal test; format: in vivo; settings: Artemia (brine shrimp) larvae, in vivo; against Artemia larvae
Protocol: as §1, §2, §3

Row | Structure (SMILES) | inhibitory activity against Escherichia coli (in words) (Escherichia coli) | LC50 (Artemia larvae) [µg/mL] | LC50 value (Artemia larvae) [µg/mL] | lethal Artemia activity (in words) (Artemia larvae) | MIC (Vibrio anguillarum [1]) [µg/mL] | activity against Vibrio anguillarum (in words) (Vibrio anguillarum [1]) | MIC (Vibrio anguillarum [2]; against Vibrio anguillarum, LB medium, 37° C., observed after 24 h) [µg/mL] | inhibitory activity against Vibrio anguillarum (in words) (Vibrio anguillarum [2]; compound 1) | MIC (Escherichia coli; against Escherichia coli, LB medium, 37° C., observed after 24 h, read-out: MIC) [µg/mL] | MIC (Escherichia coli; anti-Escherichia coli activity, read-out: MIC (minimal inhibitory concentration) value) [µg/mL] | LC50 at 24 h [3] [µg/mL]
1 | O=C1N[C@H](Cc2ccccc2)C(=O)N2C[C@@H](O)C[C@H]12 (relative stereo) [compound 4, Cyclo(D)-trans-4-OH-Pro-(D)-Phe] | weaker | 13.45 (≈ 51.7 µM) | 13.45 (≈ 51.7 µM) | better lethal Artemia activity | 0.07 (≈ 0.269 µM) | better inhibitory activity; also recorded: great bactericidal activity | – | – | – | – | –
2 | CCCCCC/C=C/CCC1C=CCC(=O)O1 (stereo not shown) [compound 1] | better inhibitory activity | – | – | better lethal Artemia activity; also recorded: very good | – | – | > 100 | weaker | 1.58 (≈ 6.68 µM) | 1.58 (≈ 6.68 µM) | 3.25 (≈ 13.8 µM)
3 | CC[C@@H](C)[C@H]1NC(=O)[C@H]2CCCN2C1=O [compound 2, Cyclo(D)-Pro-(D)-Ile] | weaker | 55.67 (≈ 265 µM) | 55.67 (≈ 265 µM) | better lethal Artemia activity | 0.05 (≈ 0.238 µM) | better inhibitory activity; also recorded: great bactericidal activity | – | – | – | – | –
4 | CC(C)C[C@H]1NC(=O)[C@H]2CCCN2C1=O [compound 3, Cyclo(D)-Pro-(D)-Leu] | weaker | 87.63 (≈ 417 µM) | 87.63 (≈ 417 µM) | better lethal Artemia activity | 0.04 (≈ 0.19 µM) | better inhibitory activity; also recorded: great bactericidal activity | – | – | – | – | –
